For the assay, the system named is BDF1 mice, P388 leukemia ip, median survival T/C. The assay is described as follows: NCI In Vivo Anticancer Drug Screen. Data for tumor model P388 Leukemia (intraperitoneal) in B6D2F1 (BDF1) mice. The conditions noted are these: endpoint: median survival time, higher = longer survival. Summed up:
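Survival ratio, drug arm over vehicle arm, in mice with a transplanted tumour.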

[1] abbreviates: dose: 25.0 mg/kg/injection, schedule: Q01DX009 (ip), vehicle: saline with Tween-80.
Where [2] appears, read: dose: 50.0 mg/kg/injection, schedule: Q01DX009 (ip), vehicle: saline with Tween-80.
Setting [3] is: dose: 100.0 mg/kg/injection, schedule: Q01DX009 (ip), vehicle: saline with Tween-80.
Setting [4] is: dose: 200.0 mg/kg/injection, schedule: Q04DX003 (ip), vehicle: saline with Tween-80.
Where [5] appears, read: dose: 100.0 mg/kg/injection, schedule: Q04DX003 (ip), vehicle: saline.
Where [6] appears, read: dose: 200.0 mg/kg/injection, schedule: Q04DX003 (ip), vehicle: saline.
[7] abbreviates: dose: 400.0 mg/kg/injection, schedule: Q04DX003 (ip), vehicle: saline.
[8] abbreviates: dose: 200.0 mg/kg/injection, schedule: Q01DX009 (ip), vehicle: saline with Tween-80.
[9] abbreviates: dose: 100.0 mg/kg/injection, schedule: Q01DX009 (ip), vehicle: saline.
The mark [10] stands for this setting: dose: 200.0 mg/kg/injection, schedule: Q01DX009 (ip), vehicle: saline.

The structures appear in SMILES notation. “And” between values parts separate entries of the source, which are not always exact repeats. Identical values can stand only once. Toxic doses and inconclusive results are not listed.

Consider `CC1(C)N=C(N)N=C(N)N1c1ccc(CCCCc2ccc(S(=O)(=O)F)cc2Cl)c(Cl)c1`, for which the T/C by setting is: (dose: 5.0 mg/kg/injection, schedule: Q01DX009 (ip), vehicle: saline with Tween-80) 157 % of control; (dose: 7.5 mg/kg/injection, schedule: Q01DX009 (ip), vehicle: saline with Tween-80) 150 % of control and 166 % of control; (dose: 8.0 mg/kg/injection, schedule: Q04DX003 (ip), vehicle: saline with Tween-80) 168 % of control; (dose: 11.5 mg/kg/injection, schedule: Q01DX009 (ip), vehicle: saline with Tween-80) 200 % of control; (dose: 12.0 mg/kg/injection, schedule: Q04DX003 (ip), vehicle: saline with Tween-80) 186 % of control; (dose: 17.0 mg/kg/injection, schedule: Q01DX009 (ip), vehicle: saline with Tween-80) 188 % of control and 191 % of control. For the same compound, the T/C by setting is: (dose: 18.0 mg/kg/injection, schedule: Q04DX003 (ip), vehicle: saline with Tween-80) 200 % of control; under setting [1], 208 % of control and 220 % of control; (dose: 26.0 mg/kg/injection, schedule: Q04DX003 (ip), vehicle: saline with Tween-80) 200 % of control; (dose: 26.5 mg/kg/injection, schedule: Q04DX003 (ip), vehicle: saline with Tween-80) 195 % of control; (dose: 37.0 mg/kg/injection, schedule: Q01DX009 (ip), vehicle: saline with Tween-80) 176 % of control; (dose: 40.0 mg/kg/injection, schedule: Q04DX003 (ip), vehicle: saline with Tween-80) 209 % of control. Further, the T/C reads like this: under setting [2], 241 % of control; (dose: 60.0 mg/kg/injection, schedule: Q04DX003 (ip), vehicle: saline with Tween-80) 176 % of control; (dose: 88.0 mg/kg/injection, schedule: Q04DX003 (ip), vehicle: saline with Tween-80) 209 % of control; (dose: 90.0 mg/kg/injection, schedule: Q04DX003 (ip), vehicle: saline with Tween-80) 180 % of control; under setting [3], 116 % of control; (dose: 133.0 mg/kg/injection, schedule: Q04DX003 (ip), vehicle: saline with Tween-80) 272 % of control. In addition, the T/C under setting [4] is 272 % of control.

On to `CCNCc1ccc(OC)cc1`, for which the T/C was 100 % of control (dose: 25.0 mg/kg/injection, schedule: Q04DX003 (ip), vehicle: saline); 100 % of control (dose: 50.0 mg/kg/injection, schedule: Q04DX003 (ip), vehicle: saline); 100 % of control under setting [5].

For `CCOC(=O)CCCC1(C)C(C#N)C(=O)NC(=O)C1C#N` (stereo not drawn), the T/C was 104 % of control under setting [5], 100 % of control under setting [6] and 118 % of control under setting [7].

For the compound `C(=N\OCCc1ccccc1)/c1cccnc1`, the T/C is, setting by setting: (dose: 100.0 mg/kg/injection, schedule: Q01DX009 (ip), vehicle: saline sonified) 100 % of control; (dose: 200.0 mg/kg/injection, schedule: Q01DX009 (ip), vehicle: saline sonified) 110 % of control.

On to `CC(C)(C)C(O)CC(C)(O)C(C)(C)C` (stereo not drawn), for which the T/C reads like this: (dose: 6.3 mg/kg/injection, schedule: Q01DX009 (ip), vehicle: Klucel (hydroxypropylcellulose) (HPC)) 101 % of control; (dose: 12.5 mg/kg/injection, schedule: Q01DX009 (ip), vehicle: Klucel (hydroxypropylcellulose) (HPC)) 107 % of control; (dose: 25.0 mg/kg/injection, schedule: Q01DX009 (ip), vehicle: Klucel (hydroxypropylcellulose) (HPC)) 108 % of control.

In the case of `Cc1ccc(C)c(CCO)c1`, the T/C reads like this: (dose: 45.0 mg/kg/injection, schedule: Q01DX009 (ip), vehicle: other) 105 % of control; (dose: 50.0 mg/kg/injection, schedule: Q01DX009 (ip), vehicle: Klucel (hydroxypropylcellulose) (HPC)) 108 % of control; (dose: 65.0 mg/kg/injection, schedule: Q01DX009 (ip), vehicle: other) 100 % of control; (dose: 100.0 mg/kg/injection, schedule: Q01DX009 (ip), vehicle: Klucel (hydroxypropylcellulose) (HPC)) 100 % of control; (dose: 100.0 mg/kg/injection, schedule: Q01DX009 (ip), vehicle: other) 100 % of control; (dose: 100.0 mg/kg/injection, schedule: Q04DX003 (ip), vehicle: saline with Tween-80) 109 % of control. For the same compound, the T/C reads like this: (dose: 150.0 mg/kg/injection, schedule: Q01DX009 (ip), vehicle: other) 105 % of control; (dose: 200.0 mg/kg/injection, schedule: Q01DX009 (ip), vehicle: Klucel (hydroxypropylcellulose) (HPC)) 112 % of control; (dose: 200.0 mg/kg/injection, schedule: Q01DX009 (ip), vehicle: other) 104 % of control and 120 % of control; under setting [4], 109 % of control.

For the compound `Nc1ccc(OS(=O)(=O)c2ccccc2)cc1`, the T/C under setting [2] is 98 % of control; the T/C under setting [3] was 108 % of control; the T/C under setting [8] was 100 % of control; the T/C (dose: 400.0 mg/kg/injection, schedule: Q01DX009 (ip), vehicle: saline with Tween-80) was 90 % of control.

In the case of `[N-]=[N+]=CC(=O)OCC(N)C(=O)O` (stereo not drawn), the T/C runs as follows: under setting [9], 110 % of control; under setting [5], 109 % of control; under setting [10], 110 % of control; under setting [6], 109 % of control; under setting [7], 118 % of control.

Turning to `Cc1cc(C)nc(NN)n1`, the T/C was 98 % of control (dose: 6.25 mg/kg/injection, schedule: Q01DX009 (ip), vehicle: saline with Tween-80); 96 % of control (dose: 12.5 mg/kg/injection, schedule: Q01DX009 (ip), vehicle: saline with Tween-80); 101 % of control under setting [1]; 102 % of control under setting [2].

For `CN1C(=O)Nc2ccc(Cl)cc2C1(O)c1ccccc1` (stereo not drawn), under setting [3], the T/C is 89 % of control.

Take `CC12CCC(O)CC1CCC1C2CCC2(C)C(C3=CC(=O)OC3)CCC12` (stereo not drawn): the T/C by setting is: (dose: 140.0 mg/kg/injection, schedule: Q01DX010 (ip), vehicle: carboxymethylcellulose (CMC)) 122 % of control; (dose: 280.0 mg/kg/injection, schedule: Q01DX010 (ip), vehicle: carboxymethylcellulose (CMC)) 122 % of control.

With `CCOC(=S)S`, the T/C under setting [9] is 100 % of control and the T/C under setting [10] was 95 % of control.

On to `CC1N/C(=C/c2ccccc2)C(=O)O1` (stereo not drawn), for which the T/C is, setting by setting: under setting [2], 118 % of control; under setting [3], 121 % of control.

In the case of `Cc1n[nH]c2ccc([N+](=O)[O-])cc2c1=O`, the T/C under setting [8] was 87 % of control.

For `CC(C)[C@]12O[C@H]1[C@@H]1O[C@]13[C@]1(O[C@H]1C[C@H]1C4=C(C(=O)OC4)[C@@H](O)C[C@@]13C)[C@@H]2O`, the T/C by setting is: (dose: 0.03 mg/kg/injection, schedule: Q01DX009 (ip), vehicle: saline + alcohol) 100 % of control and 106 % of control; (dose: 0.06 mg/kg/injection, schedule: Q01DX009 (ip), vehicle: saline + alcohol) 113 % of control and 117 % of control; (dose: 0.13 mg/kg/injection, schedule: Q01DX009 (ip), vehicle: saline + alcohol) 120 % of control; (dose: 0.25 mg/kg/injection, schedule: Q01DX009 (ip), vehicle: saline + alcohol) 150 % of control; (dose: 3.8 micrograms/kg/injection, schedule: Q01DX009 (ip), vehicle: saline) 104 % of control; (dose: 6.5 micrograms/kg/injection, schedule: Q01DX009 (ip), vehicle: saline) 104 % of control. Moreover, the T/C reads like this: (dose: 13.0 micrograms/kg/injection, schedule: Q01DX009 (ip), vehicle: saline) 95 % of control; (dose: 25.0 micrograms/kg/injection, schedule: Q01DX009 (ip), vehicle: saline) 109 % of control; (dose: 100.0 micrograms/kg/injection, schedule: Q01DX009 (ip), vehicle: saline + alcohol) 90 % of control.

Regarding `O=c1[nH]c(=O)n(C2CC(O)C(CO)O2)cc1I` (stereo not drawn), the T/C was 109 % of control (dose: 10.0 mg/kg/injection, schedule: Q01DX009 (ip), vehicle: saline with Tween-80); 107 % of control (dose: 20.0 mg/kg/injection, schedule: Q01DX009 (ip), vehicle: saline with Tween-80); 92 % of control and 109 % of control (dose: 40.0 mg/kg/injection, schedule: Q01DX009 (ip), vehicle: saline with Tween-80); 106 % of control and 118 % of control (dose: 80.0 mg/kg/injection, schedule: Q01DX009 (ip), vehicle: saline with Tween-80); 90 % of control (dose: 320.0 mg/kg/injection, schedule: Q01DX009 (ip), vehicle: saline with Tween-80).

For `O=C(CNC(=O)Nc1n[nH]c(=S)s1)N/N=C/c1ccccc1O`, the T/C is, setting by setting: under setting [2], 100 % of control; under setting [3], 91 % of control; under setting [8], 98 % of control.

The values are drawn from PubChem BioAssay AID328 (DTP/NCI, 2004).
